The values that follow come from ChEMBL document CHEMBL1201862, “PubChem BioAssay data set” (2004).

SMILES strings stand for the structures. The source made the active and inactive calls.

The target of one assay is Cytochrome P450 2C19 (Homo sapiens, UniProt P33261). The assay is described as follows: Cytochrome panel assay with activity outcomes. Panel member name: p450-cyp2c19 Compounds with AC50 equal or less than 10 uM are considered active. The format is functional. The following applies: read-out: AC50.
For another assay, the target named is Cytochrome P450 2C9 (Homo sapiens, UniProt P11712).
For the next assay, the target named is Cytochrome P450 3A4 (Homo sapiens, UniProt P08684).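 Also: CYP3A4 tested as one member of a cytochrome P450 panel screen.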
The test system of a further assay is INS1. In words: INS-1E survival protection against cytokine death – cell-based, luminescence, retest, dose response (AID 449756).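 Also: cell death triggered by IL-1 beta plus TNF-alpha plus IFN-gamma mixture; protective hits raise ATP signal compared with cytokine alone wells.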 The conditions noted are these: Rattus norvegicus. The format is functional.
A short description of assay [1]: Luminescence Cell-Based Dose Response HTS to Identify Activators of Luciferase Translation or Activity in H4 […] Cells. [Related pubchem assays: 1829 (Project Summary), 1814 (Primary HTS)]. Type of assay: functional.
The next assay deals with H4. In words: Luminescence Cell-Based Dose Response HTS to Identify Activators of 5'UTR Stem-Loop Driven Prion Protein mRNA Translation in H4 Neuroglioblastoma Cells. [Related pubchem assays: 1829 (Project Summary), 1814 (Primary HTS)]. The format is functional. The conditions noted are these: Homo sapiens.
A short description of assay [2]: NIH3T3 cell viability loss – ATP luminescence, mouse fibroblasts, counter-screen, dose response (AID 2010).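 Also: cells exposed to compound for about 90 hours before reading.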 The format is functional, cell-based. (The purpose of a counterscreen is to sort out artefacts and off-target activity.)
Assay [3] is described as follows: Trypanosoma cruzi growth suppression in host cells – NIH3T3 host cells, beta-gal luminescence, confirmation (AID 2044).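 Also: intracellular parasites grown in NIH/3T3 mouse fibroblasts as host cells; luminescent beta-galactosidase reporter signal from transgenic T. cruzi replicating inside host cells; inhibitors lower the luminescence signal.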 The format is functional, cell-based.
Another assay concerns the target T1, Cytochrome P450 1A2 (Homo sapiens, UniProt P05177).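 Also: PubChem cytochrome P450 panel assay, CYP1A2 panel member.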
T1 sequence (P05177 whole entry): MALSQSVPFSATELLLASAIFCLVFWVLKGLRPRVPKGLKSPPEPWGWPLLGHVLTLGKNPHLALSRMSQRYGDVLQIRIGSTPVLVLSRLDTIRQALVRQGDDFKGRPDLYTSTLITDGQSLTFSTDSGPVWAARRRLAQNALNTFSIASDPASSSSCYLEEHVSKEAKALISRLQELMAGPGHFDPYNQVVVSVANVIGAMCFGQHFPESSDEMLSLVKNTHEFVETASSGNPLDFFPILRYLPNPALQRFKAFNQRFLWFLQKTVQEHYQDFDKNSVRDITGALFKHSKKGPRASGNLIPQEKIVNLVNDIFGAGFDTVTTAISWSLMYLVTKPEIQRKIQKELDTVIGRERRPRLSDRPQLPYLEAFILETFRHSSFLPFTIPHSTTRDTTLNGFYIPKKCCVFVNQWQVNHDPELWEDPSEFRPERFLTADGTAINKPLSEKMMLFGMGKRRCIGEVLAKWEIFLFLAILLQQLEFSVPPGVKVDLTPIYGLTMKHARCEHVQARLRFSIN

Sequence of Cytochrome P450 3A4 (P08684 whole entry): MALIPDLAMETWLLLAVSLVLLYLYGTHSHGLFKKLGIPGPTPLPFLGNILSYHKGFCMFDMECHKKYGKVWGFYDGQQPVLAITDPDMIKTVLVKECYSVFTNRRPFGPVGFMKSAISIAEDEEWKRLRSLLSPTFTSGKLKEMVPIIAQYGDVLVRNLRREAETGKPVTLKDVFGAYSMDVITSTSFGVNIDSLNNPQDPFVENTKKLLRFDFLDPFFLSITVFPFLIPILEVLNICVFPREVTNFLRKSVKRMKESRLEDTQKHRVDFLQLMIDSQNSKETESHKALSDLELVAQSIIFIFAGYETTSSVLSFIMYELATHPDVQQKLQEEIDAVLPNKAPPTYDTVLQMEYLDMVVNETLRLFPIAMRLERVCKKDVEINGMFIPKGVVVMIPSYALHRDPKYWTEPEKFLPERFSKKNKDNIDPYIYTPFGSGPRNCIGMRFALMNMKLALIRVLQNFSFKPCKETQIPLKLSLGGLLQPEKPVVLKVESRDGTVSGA
Sequence of Cytochrome P450 2C9 (P11712 whole entry): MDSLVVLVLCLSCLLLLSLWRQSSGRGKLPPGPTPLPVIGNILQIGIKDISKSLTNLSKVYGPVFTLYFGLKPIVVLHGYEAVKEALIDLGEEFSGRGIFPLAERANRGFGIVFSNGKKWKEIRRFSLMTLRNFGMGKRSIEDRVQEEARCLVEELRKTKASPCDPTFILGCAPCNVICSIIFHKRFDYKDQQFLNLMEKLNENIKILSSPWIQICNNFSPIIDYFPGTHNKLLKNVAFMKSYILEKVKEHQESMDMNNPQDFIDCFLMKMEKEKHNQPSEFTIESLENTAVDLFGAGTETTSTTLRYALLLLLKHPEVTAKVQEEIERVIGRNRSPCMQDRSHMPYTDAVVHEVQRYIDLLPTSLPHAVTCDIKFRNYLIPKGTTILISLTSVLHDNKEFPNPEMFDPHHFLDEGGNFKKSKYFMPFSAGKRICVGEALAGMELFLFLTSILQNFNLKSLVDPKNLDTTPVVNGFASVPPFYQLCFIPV
Sequence of Cytochrome P450 2C19 (P33261 whole entry): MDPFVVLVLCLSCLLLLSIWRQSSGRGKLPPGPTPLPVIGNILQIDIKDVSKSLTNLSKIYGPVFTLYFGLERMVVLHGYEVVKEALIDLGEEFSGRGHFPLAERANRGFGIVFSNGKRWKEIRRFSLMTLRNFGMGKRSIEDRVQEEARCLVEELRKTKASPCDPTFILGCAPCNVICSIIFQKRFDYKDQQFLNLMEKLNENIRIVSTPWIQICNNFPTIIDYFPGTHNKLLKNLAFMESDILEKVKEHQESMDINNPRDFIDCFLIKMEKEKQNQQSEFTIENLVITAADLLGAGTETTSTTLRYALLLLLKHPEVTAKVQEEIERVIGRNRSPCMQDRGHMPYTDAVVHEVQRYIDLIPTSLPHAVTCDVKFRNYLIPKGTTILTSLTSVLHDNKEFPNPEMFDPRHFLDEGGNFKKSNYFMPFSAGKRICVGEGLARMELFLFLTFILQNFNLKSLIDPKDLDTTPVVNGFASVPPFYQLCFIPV

For the compound `CSc1nnc(-c2cc3c(-c4ccccc4)nn(C)c3s2)n1C`, the AC50 (in general, the concentration giving half of the maximal activity seen) at Cytochrome P450 2C19 was 22.4 µM (inconclusive); on Cytochrome P450 2C9 it was 3.55 µM (inconclusive); at Cytochrome P450 3A4, 31.6 µM (inconclusive).

For `CCOC(=O)c1sc(SC)c2c1CCC/C2=N/OC`, the AC50 in the assay on INS1 was > 260 µM (inactive).

Take `Cn1c(=O)c(-c2ccccc2)nc2cnc(OCc3ccccc3)nc21`: the AC50 on Cytochrome P450 2C19 was 39.8 µM (inconclusive); at Cytochrome P450 2C9, 20 µM (inconclusive); at Cytochrome P450 3A4 it was 39.8 µM (inconclusive).

On to `O=C(CSc1cn(Cc2ccccc2)c2ccccc12)Nc1nccs1`, for which the EC50 (usually the concentration giving half of the maximal effect) is 0.244 µM (active) in [1] and 5.48 µM (active) with H4.

With `COc1ccc(NC(=O)C2(c3ccc(NC(=O)c4ccc(OC(C)=O)cc4)cc3)CCCC2)cc1`, the AC50 on Cytochrome P450 2C9 is 1.26 µM (inconclusive).

With `COc1ccc2[nH]c(/C(C#N)=C\c3ccc(Oc4ccc([N+](=O)[O-])cn4)cc3)nc2c1`, the AC50 in the assay with INS1 is 3.64 µM (active).

In the case of `COc1ccc(C(=O)C/C(=C\C(=O)c2ccc(C)cc2)c2ccccc2)cc1`, the EC50 is > 60 µM (not active) in [2] and 1.93 µM (active) in assay [3]. In addition, the AC50 with INS1 was 7 µM (active).

As to `CC(=O)N1CCC2(CC1)CCN(c1ccncc1)CC2`, the AC50 at Cytochrome P450 2C9 is 25.1 µM (inconclusive).

For the compound `CC(=O)Nc1ccc(C2=NN(CC#N)C(=O)SC2)cc1`, the AC50 was 8.91 µM (inconclusive) at Cytochrome P450 2C9 and 15.8 µM (inconclusive) at Cytochrome P450 1A2.

For `CC(=O)c1ccc(NC(S)=NCCc2cccc(Cl)c2)cc1`, the EC50 was 2.64 µM (active) in assay [1] and > 120 µM (not active) in the assay on H4.

For `COc1ccc(Oc2nnc(C)c3ccccc23)cc1`, the EC50 was 2.76 µM (active) in assay [1] and 5.97 µM (active) with H4.

As to `Cc1cccc(CNc2nc(-c3cccc(NS(C)(=O)=O)c3)nc3ccccc23)c1`, the AC50 at Cytochrome P450 2C9 was 0.501 µM (inconclusive).

Regarding `Cc1ccc(Nc2nnc(-c3ccc4c(c3)OCO4)o2)c(C)c1`, the AC50 on Cytochrome P450 2C9 is 7.94 µM (inconclusive).

`COc1ccc(N2CCN(C(S)=Nc3cccc(C)c3)CC2)cc1`: the AC50 was 0.00562 µM (inconclusive) at Cytochrome P450 2C9 and 2.24 µM (inconclusive) at Cytochrome P450 3A4.

In the case of `O=C(CNS(=O)(=O)c1cccs1)N1CCC2(CC1)OCCO2`, at Cytochrome P450 2C9, the AC50 is 39.8 µM (inconclusive).

Turning to `CCC(=O)NCCNC(=O)c1c(SC)nsc1SC`, the results for the AC50 on Cytochrome P450 2C19, at Cytochrome P450 2C9 and on Cytochrome P450 1A2 were 39.8 µM (inconclusive), 12.6 µM (inconclusive) and 3.16 µM (inconclusive), respectively.

`Cc1ccnc(N(C(=O)Nc2ccccc2)C2=NCC(C)(C)S2)c1`: the EC50 in assay [1] was 0.709 µM (active); with H4, > 120 µM (not active).

Consider `O=C(NCc1ccccc1)C1=C[C@H](c2csc3ccccc23)C[C@H](OCCCCO)O1`, for which the AC50 in the assay with INS1 is 5.81 µM (active).

Take `COc1ccc(O[C@H]2C=C[C@@H](c3ccccc3)O[C@H]2COC(=O)CC/C(C)=N\O[C@@H](C)CN2CCCc3nc(C)c(C)cc32)cc1`: the AC50 on Cytochrome P450 2C9 is 3.98 µM (inconclusive).

In the case of `COc1ccc([N+](=O)[O-])cc1NC1C2CC3CC(C2)CC1C3` (stereo not given), the AC50 was 22.4 µM (inconclusive) at Cytochrome P450 2C9 and 11.2 µM (inconclusive) on Cytochrome P450 3A4.
